In the supplement of paper PMC10307832:

Columns and labels:
Assay in all cases: relative viability (nuclei count vs DMSO), 5 days (fraction); higher = more cells survive
BAY61-3606 + Foretinib = compound: COC1=C(C=C(C=C1)C2=CC3=NC=CN3C(=N2)NC4=C(C=CC=N4)C(=O)N)OC [BAY61-3606] + COc1cc2c(Oc3ccc(NC(=O)C4(C(=O)Nc5ccc(F)cc5)CC4)cc3F)ccnc2cc1OCCCN1CCOCC1 [Foretinib] (partner 0.25 µM)
Procedure, shortened: (§1)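 Relative viability was taken as the ratio of nuclei in treated wells to nuclei in vehicle wells. Lung cancer cell lines in 1536-well plates received compounds by pin tool one day after seeding, either one drug alone or a fixed anchor-drug dose plus five library-drug doses (not always all listed) in √10 steps. Nuclei were counted on 4× images after 5 days of treatment, and values are medians of duplicate plates.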

BAY61-3606 + Decitabine = compound: COC1=C(C=C(C=C1)C2=CC3=NC=CN3C(=N2)NC4=C(C=CC=N4)C(=O)N)OC [BAY61-3606] + Nc1ncn([C@H]2C[C@H](O)[C@@H](CO)O2)c(=O)n1 [Decitabine] (partner 2 µM)
Procedure, shortened: as §1

Doxorubicin + Navitoclax = compound: COc1cccc2c1C(=O)c1c(O)c3c(c(O)c1C2=O)C[C@@](O)(C(=O)CO)C[C@@H]3O[C@H]1C[C@H](N)[C@H](O)[C@H](C)O1 [Doxorubicin] + CC1(C)CCC(c2ccc(Cl)cc2)=C(CN2CCN(c3ccc(C(=O)NS(=O)(=O)c4ccc(N[C@H](CCN5CCOCC5)CSc5ccccc5)c(S(=O)(=O)C(F)(F)F)c4)cc3)CC2)C1 [Navitoclax] (partner 0.5 µM)
Procedure, shortened: as §1

Doxorubicin + Decitabine = compound: COc1cccc2c1C(=O)c1c(O)c3c(c(O)c1C2=O)C[C@@](O)(C(=O)CO)C[C@@H]3O[C@H]1C[C@H](N)[C@H](O)[C@H](C)O1 [Doxorubicin] + Nc1ncn([C@H]2C[C@H](O)[C@@H](CO)O2)c(=O)n1 [Decitabine] (partner 2 µM)
Procedure, shortened: as §1

Row | Cell Line | relative viability (BAY61-3606 + Foretinib; first compound 0.02 µM) | relative viability (BAY61-3606 + Foretinib; first compound 0.06325 µM) | relative viability (BAY61-3606 + Foretinib; first compound 0.2 µM) | relative viability (BAY61-3606 + Foretinib; first compound 0.6325 µM) | relative viability (BAY61-3606 + Foretinib; first compound 2 µM) | relative viability (BAY61-3606 + Decitabine; first compound 0.02 µM) | relative viability (BAY61-3606 + Decitabine; first compound 0.06325 µM) | relative viability (BAY61-3606 + Decitabine; first compound 0.2 µM) | relative viability (BAY61-3606 + Decitabine; first compound 0.6325 µM) | relative viability (BAY61-3606 + Decitabine; first compound 2 µM) | relative viability (Doxorubicin + Navitoclax; first compound 0.001 µM) | relative viability (Doxorubicin + Navitoclax; first compound 0.003162 µM) | relative viability (Doxorubicin + Navitoclax; first compound 0.01 µM) | relative viability (Doxorubicin + Navitoclax; first compound 0.03162 µM) | relative viability (Doxorubicin + Navitoclax; first compound 0.1 µM) | relative viability (Doxorubicin + Decitabine; first compound 0.001 µM) | relative viability (Doxorubicin + Decitabine; first compound 0.003162 µM) | relative viability (Doxorubicin + Decitabine; first compound 0.03162 µM) | relative viability (Doxorubicin + Decitabine; first compound 0.1 µM) | relative viability (Doxorubicin + Decitabine; first compound 0.01 µM)
1 | NCI-H727 | 0.919 | 0.931 | 0.887 | 0.985 | 0.8 | 0.8 | 0.8 | 0.947 | 0.981 | 0.895 | 0.402 | 0.474 | 0.492 | 0.462 | 0.455 | 0.913 | 0.909 | 0.89 | 0.909 | –
2 | A-427 | 1.16 | 1.01 | 1.04 | 1.24 | 0.925 | 0.579 | 0.561 | 0.565 | 0.611 | 0.622 | 1 | 0.978 | 0.966 | 0.983 | 1.05 | 0.585 | 0.625 | 0.456 | 0.4 | 0.553
3 | EMC-BAC-2 | 1.1 | 0.992 | 1.02 | 1.11 | 0.738 | 1.07 | 1.06 | 1.04 | 1.19 | 0.986 | 1.16 | 1.25 | 1.16 | 1.19 | 1.15 | 0.983 | 0.781 | 0.321 | 0.338 | 0.614
4 | NCI-H647 | 1.24 | 1.1 | 1.14 | 1.27 | 0.878 | 0.382 | 0.433 | 0.391 | 0.416 | 0.256 | 1.17 | 1.4 | 0.992 | 0.65 | 0.517 | 0.39 | 0.387 | 0.206 | 0.183 | 0.342
5 | LCLC-97TM1 | 0.92 | 0.943 | 0.962 | 1.04 | 0.765 | 0.223 | 0.222 | 0.247 | 0.223 | 0.228 | 0.284 | 0.411 | 0.524 | 0.398 | 0.331 | 0.229 | 0.233 | 0.176 | 0.242 | 0.178
6 | HOP-62 | 1.05 | 1.04 | 1.1 | 1.13 | 0.815 | – | 0.2 | 0.228 | 0.266 | 0.22 | 1.06 | 0.927 | 0.988 | 0.944 | 1.01 | 0.217 | 0.249 | 0.228 | 0.206 | 0.187
7 | NCI-H1437 | 1.23 | 1.22 | 1.31 | 1.38 | 1.28 | 0.579 | 0.602 | 0.564 | 0.563 | 0.582 | 1.03 | 1.12 | 1.02 | 0.75 | 0.379 | 0.538 | 0.616 | 0.417 | 0.361 | 0.501
8 | NCI-H1755 | 0.932 | 0.867 | 0.974 | 0.913 | 0.882 | 0.671 | 0.666 | 0.656 | 0.673 | 0.773 | 1 | 1.03 | 0.927 | 0.991 | 1.02 | 0.774 | 0.763 | 0.714 | 0.743 | 0.736
9 | HARA | 0.926 | 0.76 | 0.832 | 0.887 | 0.631 | 0.515 | 0.512 | 0.67 | 0.688 | 0.585 | 1.17 | 1.09 | 1.18 | 1.05 | 1.15 | 0.796 | 0.425 | 0.507 | 0.407 | 0.519
10 | HCC-15 | 0.99 | 0.981 | 0.963 | 1.05 | 0.83 | 0.575 | 0.569 | 0.583 | 0.65 | 0.6 | 0.707 | 0.716 | 0.705 | 0.665 | 0.634 | 0.628 | 0.704 | 0.408 | 0.211 | 0.571
11 | LOU-NH91 | 0.95 | 0.916 | 0.985 | 0.976 | 0.823 | 0.809 | 0.805 | 0.847 | 0.838 | 0.746 | – | 0.561 | 0.711 | 0.444 | 0.405 | – | 0.816 | 0.758 | 0.693 | 0.837
12 | NCI-H23 | 1.05 | 0.907 | 1.01 | 1.03 | 0.874 | 0.393 | 0.329 | 0.363 | 0.346 | 0.383 | – | 0.686 | 0.767 | 0.698 | 0.926 | 0.335 | 0.304 | 0.284 | 0.365 | 0.335
13 | NCI-H1666 | 1.06 | 1.02 | 0.987 | 0.991 | 0.918 | 0.784 | 0.655 | 0.658 | 0.737 | 0.686 | 0.882 | 0.953 | 0.55 | 0.282 | 0.275 | 0.671 | 0.759 | 0.692 | 0.697 | 0.662
14 | NCI-H358 | 0.773 | 0.457 | 0.652 | 0.637 | 0.286 | 0.226 | 0.228 | 0.241 | 0.228 | 0.14 | – | – | – | – | – | 0.206 | 0.17 | 0.12 | 0.0966 | 0.154
15 | NCI-H2085 | 1.07 | 0.947 | 0.995 | 0.871 | 0.917 | 0.531 | 0.528 | 0.555 | 0.531 | 0.53 | 1.28 | 1.24 | 1.09 | 0.882 | 1.01 | 0.536 | 0.5 | 0.521 | 0.553 | 0.522
16 | LCLC-103H | 0.81 | 0.83 | 0.832 | 0.701 | 0.681 | 0.773 | 0.707 | 0.75 | 0.748 | 0.773 | – | – | – | – | – | 0.751 | 0.747 | 0.789 | 0.73 | 0.75
